{"source": "patent US7482137B2", "about": "“Hybrid glycosylated products and their production and use” (Biotica Technology Limited, priority 2000, dated 2009)", "system": "Bacillus subtilis ATCC 6633", "assay": "Filter disc bioassay, zones of inhibition in B. subtilis lawn", "assay_type": "cell-based", "conditions": "10-fold dilution series of 1.1 mg in 200 μl methanol, 10 μl per filter disc; indicator strain Bacillus subtilis ATCC 6633", "description": "Cosmid no 7 which has been isolated from a Streptomyces fradiae cosmid library, was kindly provided by J. Corts. E. coli transformants were selected with 100 ug/ml ampicillin. The Saccharopolyspora erythraea NRRL 2338-red variant strain (Hessler et al., Appl. Microbiol. Biotechnol. (1997) 47:398-404) was kindly provided by J. M. Weber and was routinely maintained on M1-102 agar (Kaneda et al. J. Biol. Chem. (1962) 237:322-327), R2T20 (Yamamoto et al. J. Antibiot. (1986) 34:1304-1313), R2T2 (same as R2T (Weber et al. J. Bacterial. (1985)164:425-433), but without peptone), and TSB (Difco) for liquid cultures at 30° C. Bacillus subtilis ATCC 6633 was used in bioassays to assess erythromycin production as described (Gaisser et al. (1997), supra). […] Both metabolites (10 μl of 10 mM stock solution) were applied to agar wells cut into the S. erythraea lawn and incubated at 30° C. overnight as described (Gaisser et al. (1997) supra) and the development of zones of inhibition in the B. subtilis lawn around S. erythraea colonies was assessed. […]\nBacillus subtilis ATCC 6633 was used in bioassays as described previously (Gaisser et al., 1998). […] The development of zones of inhibition in the B. subtilis lawn was assessed."}
{"smiles": "CCC1OC(=O)C(C)C(OC2OC(C)C(O)C(O)C2OC)C(C)C(OC2OC(C)CC(N(C)C)C2O)C(C)(O)CC(C)C(=O)C(C)C(O)C1C", "note": "(stereo not shown) [3-O-(2′-O-methylrhamnosyl)erythromycin D]", "values": [{"measurement": "bioactivity, fold less compared to erythromycin A (size of the halos around filter discs)", "value": "about 100 fold"}]}
